According to patent US10829798B2, “DNA-linked enzyme-coupled assays” (THE REGENTS OF THE UNIVERSITY OF CALIFORNIA, priority 2014, dated 2020):

How the values were obtained:
OleD = molecular target: T1, OleD (Streptomyces antibioticus, UniProt Q53685, P55A/R82V/R83E/T84P); assay: qPCR DLEnCA, cell-free transcription/translation-derived OleD; format: biochemical
T1 construct: made in house; host or cells: PURExpress In Vitro Protein Synthesis Kit (NEB E6800L), cell-free transcription/translation, linear DNA with T7 promoter
T1 sequence (Q53685 other isoform, or with tags, fused parts or gaps P55A/R82V/R83E/T84P): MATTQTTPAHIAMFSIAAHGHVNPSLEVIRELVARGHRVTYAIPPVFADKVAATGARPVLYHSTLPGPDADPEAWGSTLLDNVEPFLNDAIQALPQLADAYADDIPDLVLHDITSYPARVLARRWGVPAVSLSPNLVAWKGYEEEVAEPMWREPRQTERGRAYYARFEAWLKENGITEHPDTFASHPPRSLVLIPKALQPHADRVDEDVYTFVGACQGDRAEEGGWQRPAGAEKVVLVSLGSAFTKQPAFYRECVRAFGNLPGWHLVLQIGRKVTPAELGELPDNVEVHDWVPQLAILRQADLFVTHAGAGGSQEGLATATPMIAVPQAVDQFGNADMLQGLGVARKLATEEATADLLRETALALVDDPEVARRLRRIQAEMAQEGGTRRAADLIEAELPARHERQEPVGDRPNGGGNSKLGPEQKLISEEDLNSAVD
Method: (§1) FIG. 4A-FIG. 4D. qPCR DLEnCA and substrate specificity studies. A. Chemicals used as substrates in subsequent assays: (i) known substrates of OleD; (ii) flavone library; (iii) known substrates of GT05 (UGT72B1 (Q9M156)) and GT06 (UGT89B1 (AT1 G73880)). B. DNA encoding OleD (5 nM) was incubated in a cell-free transcription/translation system for 3 hours at 37° C., followed by the addition of chemical (1 mM) and UDP-Glc (2 μM). After a subsequent incubation of 3 hours, TbGT and probe (0.2 nM) were added. After probe purification and MfeI digestion, probe integrity was identified using qPCR. Percent recovery of probe is reported (n=8; error bars=standard error). C. DNA encoding OleD (5 nM) was incubated for 3 hours at 37° C. in a cell-free transcription/translation system, followed by the addition of flavone (1 mM) and UDP-Glc (2 μM). After a subsequent incubation of 3 hours, TbGT and probe (0.2 nM) were added. After probe purification and MfeI addition, probe integrity was identified using qPCR. Percent recovery of probe is reported (n=8; error bars=standard error). D. DNA encoding OleD, GT05, or GT06 (5 nM) were incubated for 3 hours at 37° C. in a cell-free transcription/translation system, followed by the addition of chemical (1 mM) and UDP-Glc (2 μM). After a subsequent incubation of 3 hours, TbGT and probe (0.2 nM) were added. After probe purification and MfeI digestion, probe integrity was identified using qPCR. Percent recovery of probe is reported as a heat map (n=8) (specific recovery figures and percent error can be found in FIG. 16). *=p<0.05 vs. no chemical control.
PCR tubes were used for most reactions. All incubations were performed at 37° C. Assays were initiated upon the addition of linear DNA (5 nM final concentration) to 4 μl PURExpress Solution A and 3 μl PURExpress Solution B. Samples were incubated at 37° C. for 3 hours prior to addition of UDP-Glucose and chemical (1 mM final concentration) in DMSO. Samples were incubated for an additional 3 hours prior to addition of 1 unit T4 Phage β-glucosyltransferase containing 0.2 nM probe. Samples were incubated an additional 3 hours before DNA was purified using the Zymo DNA Clean and Concentrator Kit. Samples were digested overnight with MfeI prior to analysis. Concentration of intact DNA probe was identified using the iQ SYBR Green Supermix (1708880) with probe DNA as standards. qPCR was carried out on the Bio-Rad iQ5 Multicolor Real-Time PCR Detection System using primers P13 and P14 with the following temperatures; 94° C. 30 seconds followed by 40 cycles of 94° C. 10 seconds and 55° C. for 30 seconds. All results were compared to uncut probe DNA that had been carried through the process as negative controls (considered full recovery of probe).
The second DLEnCA workflow developed involved qPCR as a final readout (qPCR DLEnCA, FIG. 1—qPCR workflow). A linear fragment of DNA was modified to contain 5-hm-cytosines throughout. To determine a threshold for probe protection under conditions amenable to the qPCR DLEnCA workflow, UDP-Glc was titrated into mixtures of the cell-free transcription/translation system containing 5-hm-cytosine-modified DNA probe (0.2 nM probe DNA containing 0.1 μM modified 5-hm-cytosines) and TbGT. After digestion with the restriction enzyme MfeI, the amount of intact DNA probe was determined using qPCR (FIG. 3C). […] A threshold for protection was identified at a 20:1 molar ratio of UDP-Glc to total 5-hm-cytosine in probe DNA; this UDP-Glc amount was used as the starting concentration of UDP-Glc for all qPCR experiments. To test the feasibility of qPCR DLEnCA, OleD was again tested upon the substrate kaempferol (FIG. 3D), using DNA encoding a promoter and OleD as starting material. As expected, when all components of the assay were present, 27% of intact probe DNA was recovered. […]

[1] = molecular target: T2, GT06 (UGT89B1 (AT1G73880)) (Arabidopsis thaliana, UniProt Q9C9B0); assay: qPCR DLEnCA, cell-free transcription/translation-derived GT06; format: biochemical; details: GT06 DNA 5 nM, chemical 1 mM, UDP-Glc 2 μM, probe 0.2 nM; low recovery = substrate glucosylated
T2 sequence (Q9C9B0 1-473): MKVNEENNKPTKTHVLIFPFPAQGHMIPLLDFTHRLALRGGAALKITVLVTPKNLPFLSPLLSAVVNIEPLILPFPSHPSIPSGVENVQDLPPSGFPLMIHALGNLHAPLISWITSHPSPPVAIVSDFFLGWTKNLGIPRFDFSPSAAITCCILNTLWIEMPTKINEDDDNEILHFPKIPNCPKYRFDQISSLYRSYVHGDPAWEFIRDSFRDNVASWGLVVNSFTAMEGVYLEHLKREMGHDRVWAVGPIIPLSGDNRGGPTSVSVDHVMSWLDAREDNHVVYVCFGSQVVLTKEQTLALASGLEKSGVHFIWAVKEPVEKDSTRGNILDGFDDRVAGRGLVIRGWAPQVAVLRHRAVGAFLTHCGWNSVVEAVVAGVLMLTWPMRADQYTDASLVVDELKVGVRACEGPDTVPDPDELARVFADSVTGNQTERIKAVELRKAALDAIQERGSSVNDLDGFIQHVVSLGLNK
Method: as §1, with “After probe purification and MfeI digestion, probe integrity was identified using qPCR. Percent recovery of probe is reported as a heat map (n=8) (specific recovery figures and percent error can be found in FIG. 16). *=p<0.05 vs. no chemical control.” left out

| SMILES | recovery of intact probe DNA (OleD; OleD DNA 5 nM, chemical 1 mM, UDP-Glc 2 μM, probe 0.2 nM, low recovery = substrate glucosylated) | activity of OleD with chemical (OleD; tested against I, X, XI, XII, qPCR DLEnCA, verified with LCMS) | recovery of probe [1] |
| --- | --- | --- | --- |
| O=c1c(O)c(-c2ccc(O)cc2)oc2cc(O)cc(O)c12 [I, kaempferol] | 27% | showed activity |  |
| O=C(O)c1ccc(O)cc1 [XI, 4-hydroxybenzoic acid] |  |  | 25% |
